As usually defined, the IC50 is the point on the concentration scale where inhibition reaches its midpoint. For orientation: Kd means the concentration at which binding is half-saturated.

The structures appear in SMILES notation.

Assay [1] concerns the target T1, LecA (Pseudomonas aeruginosa, UniProt Q05097).
T1 construct: made in house
Nature of the assay: Competitive binding assay based on fluorescence polarization, LecA. On the procedure:
Next, binding of the optimized divalent ligand 17 and its synthetic precursor 16 to LecA was evaluated by fluorescence polarization-based (FP) assays,[47] SPR, and ITC. […] Therefore, fluorescent ligand 17 was analyzed in a direct binding experiment by FP. […] The dissociation constants for 16 were 47.2 ± 11.3 nM (ITC) and 47.8 ± 44.1 nM (steady-state SPR), while for 17, the values were 64.1 ± 31.1 nM and 79.3 ± 24.9 nM (steady-state SPR). For the SPR experiments, Kd was also determined by single-cycle kinetic analysis resulting in approximately five times higher affinity, but the data have limited reliability due to suboptimal fit for the kinetic curves (Figures S13B and S14).[58]−[60] […]
137 mM NaCl, 2.6 mM KCl at pH 7.4 supplemented with 1 mM CaCl2). Protein concentration was determined by UV spectroscopy at 280 nm using a molar extinction coefficient of 27 960 M-1 cm-1 for LecA and 6 990 M-1 cm-1 for LecB.
All synthesized alkyne precursors (S5m, S5p, S6m, S6p, S11, 25, S16, S22 and S24) were analysed in the previously established competitive binding assays based on fluorescence polarization (Figure S2).18,19 Galactose-based compounds (S5m, S5p, S6m, S6p, S11) were evaluated against LecA and C-glycoside-based compounds […] and S16 against LecB. […]
PheraStar FS plate reader (BMG Labtech GmbH, Germany) with excitation filters at 485 nm and emission filters at 535 nm. […]
Background: In fluorescence polarisation assays a small probe gives low polarisation when free and higher when bound to something large.

Assay [2] has as its target T1, LecA. The assay is described as follows: Direct binding assay based on fluorescence polarization, titration with LecA. Conditions: read-out: Kd (direct binding, fluorescence polarization); LecA titrated to fluorescent probe, TBS/Ca2+ buffer.
Method: The binding affinities of imaging probes 2–4 for LecA were determined using a direct binding assay based on fluorescence polarization (FP).[47]
(A, C) Monovalent LecA imaging probes 2–4 based on phenyl β-D-galactoside (1) were titrated with LecA. […] (E) Xyloside-fluorescein conjugate (8) and azido fluorescein (9) served as negative controls in titrations with LecA and LecB, respectively. Averages and standard deviations were determined from at least three independent titrations of technical triplicates each.
Direct binding affinity determination of LecA and LecB imaging probes was performed with direct titration of protein and imaging probes in TBS/Ca2+ buffer. Protein dilution series was prepared in 96 well plates and 10 µL of each dilution in triplicates were mixed with 10 µL of fluorescent compound (20 nM) in 384-well microtiter plates (Greiner Bio-One, Germany, cat no 781900). The plates were centrifuged (1 min, 500 g), sealed and incubated for 2 h in dark wet chamber under gentle shaking. Fluorescence was measured on a PheraStar FS plate reader (BMG Labtech GmbH, Germany) with excitation filters at 485 nm and emission filters at 535 nm. The data were analysed with MARS Data Analysis Software (BMG Labtech GmbH, Germany) to calculate Kd values.

T1 sequence (Q05097 whole entry): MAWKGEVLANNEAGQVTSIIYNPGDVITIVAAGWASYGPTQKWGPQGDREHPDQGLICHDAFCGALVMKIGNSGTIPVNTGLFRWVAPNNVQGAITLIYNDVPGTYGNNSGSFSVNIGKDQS

In assay [1], `C#CCCN(Cc1ccc(NC(=O)CCc2ccc(O[C@@H]3O[C@H](CO)[C@H](O)[C@H](O)[C@H]3O)cc2)cc1)Cc1ccc(NC(=O)CCc2ccc(O[C@@H]3O[C@H](CO)[C@H](O)[C@H](O)[C@H]3O)cc2)cc1` [compound 16] gave an IC50 of 5.6 ± 2.2 µM.

Regarding `O=C(CCc1ccc(O[C@@H]2O[C@H](CO)[C@H](O)[C@H](O)[C@H]2O)cc1)Nc1ccc(CN(CCc2cn(CCOCCOCCOCCNC(=S)Nc3ccc4c(c3)C(=O)OC43c4ccc(O)cc4Oc4cc(O)ccc43)nn2)Cc2ccc(NC(=O)CCc3ccc(O[C@@H]4O[C@H](CO)[C@H](O)[C@H](O)[C@H]4O)cc3)cc2)cc1` [compound 17], the Kd in assay [2] is 1.05 ± 0.12 µM.

These data come from paper PMC11672137, “High-Affinity Lectin Ligands Enable the Detection of Pathogenic Pseudomonas aeruginosa Biofilms: Implications for Diagnostics and Therapy” (JACS Au, 2024).
